Marks after values point to notes of the source that are not given here. Values belong to the compound of their own block, whether it stands above or below them.
Experiments:
OVA-primed splenocytes = assay: Inhibition of antigen-induced IL-5 production by OVA-primed splenocytes in vitro; format: cell-based, mice; conditions: Mus musculus, Splenocyte, 72 h; OVA-sensitized splenocytes cultured 3 days with 200 μg/mL OVA; IL-5 by ELISA
Description: (§1) For each of these assays, female C57BL/6 mice obtained from the Jackson Laboratory (Bar Harbor, Me.) were given an intraperitoneal (i.p.) injection of ovalbumin (OVA, Grade V, Sigma Chemical Company, St. Louis, Mo.) adsorbed to aluminum hydroxide (10 μg OVA+9 mg aluminum hydroxide in 200 μL saline). This sensitizes OVA-specific lymphocytes for subsequent restimulation either in vivo or in vitro.
The first set of experiments was designed to determine whether the MEK inhibitors could prevent antigen-induced production of IL-5 by the OVA-primed splenocytes in vitro. IL-5 is required for the differentiation, migration, and survival of pulmonary eosinophils, which are thought to be responsible for much of the pathology associated with human asthma. In order to examine the effects of MEK inhibitors on IL-5 production, OVA-sensitized mice were sacrificed by cervical dislocation 14 days after sensitization (Day 14), the spleens were excised and disaggregated, and the erythrocytes were lysed. The splenocytes were washed and resuspended at […] in complete medium consisting of RPMI 1640 (Gibco BRL, Gaithersburg, Md.) with 10% heat-inactivated fetal calf serum (Hyclone, Logan, Utah), 55 μM 2-mercaptoethanol, 50 U/mL penicillin G, 50 μg/mL streptomycin sulfate, and 2 mM L-glutamine (Gibco BRL). The splenocytes were then cultured at 37° C. in the presence of 200 μg/mL OVA. MEK inhibitors were also added to the cultures from sterile 10 mM stock solutions (in DMSO). After 3 days, the culture medium was recovered and assayed for IL-5 by specific ELISA.

BAL eosinophils [1] = assay: Adoptive (passive) transfer of eosinophilic lung inflammation by MEK inhibitor-treated splenocytes; format: in vivo; conditions: spleen cell culture treated with 10 μM compound; cells transferred to naive mice; OVA aerosol challenge
Description: as §1
When OVA-sensitized spleen cells are restimulated with OVA in vitro for 3 days, as described above, the spleen cells not only produce IL-5, but also acquire the ability to induce eosinophilic lung inflammation when transferred into naive recipient mice. The critical cell type responsible for this adoptively-transferred activity is thought to be IL-5-producing T lymphocytes. […] Splenocytes from OVA restimulation cultures, with or without the addition of MEK inhibitors were harvested after 3 days of culture, washed three times, and resuspended at 1×10^8 cells/mL in sterile saline. Groups of five naive (unsensitized) […] mice were injected i.p. with 200 μL of the cell suspension (2×10^7 cells). Three days after transfer of cells, the recipient mice were challenged with a 12-minute inhalation of an aerosol formulation of 1.5% OVA in saline (weight/volume), the mist being produced by a nebulizer (small particle generator model SPAG-2, ICN Pharmaceuticals, Costa Mesa, Calif.). Three days after aerosol challenge, the mice were anesthetized with an i.p. injection of an anesthetic mixture comprising Ketamine, acepromazine, and xylazine. The trachea of each mouse was exposed and cannulated. The lungs and upper airways were lavaged with 0.5 mL of cold (5° C.) phosphate buffered saline (PBS). The cells within a 200 μL portion of the bronchoalveolar lavage (BAL) fluid were enumerated using a Coulter counter (Model ZB 1, Coulter Electronics, Hialeah, Fla.). […] The number of eosinophils in the BAL fluid was determined by multiplying the percentage of eosinophils by the total cell count.

BAL eosinophils [2] = assay: Active OVA-induced eosinophilic lung inflammation in mice, oral dosing; format: in vivo; conditions: for % Inhibition of BAL Eosinophils / % Inhibition of BAL Eosinophilia: oral; for % Inhibition of BAL Eosinophilia: 4 days (Day 13 to Day 16); for activity against BAL eosinophils (in words): multiple doses, dosing for 4 days (Table 4); for inhibitory activity against BAL eosinophils (in words): oral dosing schedule of 9 days (Table 5)
Description: as §1
The final set of experiments was designed to test whether MEK inhibitors could inhibit active OVA-induced eosinophilic lung inflammation in mice. Mice were sensitized with OVA/aluminum hydroxide on Day 0 as described above. On Day 14, the mice were challenged by aerosol with 1.5% OVA, as described above for the adoptive-transfer recipients. One group of eight sensitized mice was dosed orally with vehicle (0.5% hydroxypropylmethylcellulose/0.25% TWEEN-80). Other groups of sensitized mice (8 mice per group) were given oral doses of a MEK inhibitor. The test compound was dissolved in the vehicle, and the volume for each dosage was adjusted to 200 μL, so that each test animal received the same oral volume. In experiments reported in Table 3 and Table 4, the MEK inhibitor was administered starting on Day 13 (ie, 13 days after initial sensitization and 1 day prior to aerosol challenge), and continued daily through Day 16 (4 days total). In experiments reported in Table 5, the MEK inhibitor was administered starting on Day 7 (ie, 7 days after initial sensitization and 7 days prior to aerosol challenge), and continued daily through […]. On Day 17 of each experiment (17 days following the initial OVA challenge, and 3 days after the OVA aerosol challenge), all animals including controls were anesthetized, cannulated, and lavaged as previously described. The number of BAL eosinophils was determined as described above.

[3] = 4-day compound dosing, 10 mg/kg
[4] = 4-day compound dosing, 30 mg/kg
[5] = 4-day compound dosing, 100 mg/kg

SMILES: O=C(NOCC1CC1)c1ccc(F)c(F)c1Nc1ccc(I)cc1Cl [PD 184352, 2-(2-Chloro-4-iodophenylamino)-N-cyclopropylmethoxy-3,4-difluorobenzamide]
IC50 (OVA-primed splenocytes): 1620 nM
% Inhibition of BAL Eosinophils (BAL eosinophils [1]): 99.46%
% Inhibition of BAL Eosinophils (BAL eosinophils [2]; [3]): −22.7%
% Inhibition of BAL Eosinophils (BAL eosinophils [2]; [4]): −153.8%
% Inhibition of BAL Eosinophils (BAL eosinophils [2]; [5]): −8.2%
% Inhibition of BAL Eosinophils (BAL eosinophils [2]; 9-day compound dosing, 10 mg/kg): −42.99%
% Inhibition of BAL Eosinophils (BAL eosinophils [2]; 9-day compound dosing, 30 mg/kg): 1.83%
% Inhibition of BAL Eosinophils (BAL eosinophils [2]; 9-day compound dosing, 100 mg/kg): 59.85%
% Inhibition of BAL Eosinophilia (BAL eosinophils [2]; Dose 150): −5.41%
activity against BAL eosinophils (in words) (BAL eosinophils [2]): does not
inhibitory activity against BAL eosinophils (in words) (BAL eosinophils [2]): shown to inhibit the asthma-like response in mice

SMILES: Cc1cc(I)ccc1Nc1c(C(=O)NOCC2CC2)cc(Br)c(F)c1F [PD 177168, 2-(2-Methyl-4-iodophenylamino)-N-cyclopropylmethoxy-3,4-difluoro-5-bromobenzamide]
IC50 (OVA-primed splenocytes): 1200 nM
% Inhibition of BAL Eosinophilia (BAL eosinophils [2]; Dose 100): −23.38%

SMILES: O=C(NO)c1cc(Br)c(F)c(F)c1Nc1ccc(I)cc1Cl [PD 184386, 2-(2-Chloro-4-iodophenylamino)-N-hydroxy-3,4-difluoro-5-bromobenzamide]
IC50 (OVA-primed splenocytes): 23 nM
% Inhibition of BAL Eosinophils (BAL eosinophils [1]): 99.78%
% Inhibition of BAL Eosinophilia (BAL eosinophils [2]; Dose 100): −33.24%

SMILES: Cc1cc(I)ccc1Nc1cc(F)ccc1C(=O)NO [PD 170611, 2-(2-Methyl-4-iodophenylamino)-N-hydroxy-4-fluorobenzamide]
IC50 (OVA-primed splenocytes): 1120 nM
melting point: 61 to 75 °C

SMILES: COc1cccc(-c2cc(=O)c3ccccc3o2)c1N [PD 098059, 2-(2-amino-3-methoxyphenyl)-4-oxo-4H-[1]benzopyran, reference compound]
IC50 (OVA-primed splenocytes): 17400 nM

SMILES: Cc1cc(I)ccc1Nc1cc(F)ccc1C(=O)O [Example 1, 4-Fluoro-2-(4-iodo-2-methylphenylamino)benzoic Acid]
melting point: 224 to 229.5 °C

SMILES: O=C(NOCC1CC1)c1cc(Br)c(F)c(F)c1Nc1ccc(I)cc1Cl [PD 184161, 2-(2-Chloro-4-iodophenylamino)-N-cyclopropylmethoxy-3,4-difluoro-5-bromobenzamide]
IC50 (OVA-primed splenocytes): 1150 nM
% Inhibition of BAL Eosinophilia (BAL eosinophils [2]; Dose 100): −32.53%

Second part, led by results:

melting point: 80 to 90 °C
SMILES: Cc1cc(I)ccc1Nc1c(C(=O)NO)cc(Br)c(F)c1F [PD 171984, 2-(2-Methyl-4-iodophenylamino)-N-hydroxy-3,4-difluoro-5-bromobenzamide]
IC50 (OVA-primed splenocytes): 117 nM
% Inhibition of BAL Eosinophils (BAL eosinophils [1]): 99.82%
% Inhibition of BAL Eosinophils (BAL eosinophils [2]; [3]): 38.4* %
% Inhibition of BAL Eosinophils (BAL eosinophils [2]; [4]): 46.6* %
% Inhibition of BAL Eosinophils (BAL eosinophils [2]; [5]): 58.4* %
% Inhibition of BAL Eosinophils (BAL eosinophils [2]; 9-day compound dosing, 10 mg/kg, Experiment 1): −13.74%
% Inhibition of BAL Eosinophils (BAL eosinophils [2]; 9-day compound dosing, 10 mg/kg, Experiment 2): 50.15* %
% Inhibition of BAL Eosinophils (BAL eosinophils [2]; 9-day compound dosing, 30 mg/kg, Experiment 1): 80.64* %
% Inhibition of BAL Eosinophils (BAL eosinophils [2]; 9-day compound dosing, 30 mg/kg, Experiment 2): 37.23* %
% Inhibition of BAL Eosinophils (BAL eosinophils [2]; 9-day compound dosing, 100 mg/kg, Experiment 1): 88.40* %
% Inhibition of BAL Eosinophils (BAL eosinophils [2]; 9-day compound dosing, 100 mg/kg, Experiment 2): 54.77* %
% Inhibition of BAL Eosinophilia (BAL eosinophils [2]; Dose 100): 55.26* %
inhibition of pulmonary eosinophilia (in words) (BAL eosinophils [2]; initial analysis, dosed orally for 4 days (Table 3)): demonstrated any inhibition of pulmonary eosinophilia
activity against BAL eosinophils (in words) (BAL eosinophils [2]): appears active
inhibitory activity against BAL eosinophils (in words) (BAL eosinophils [2]): statistically significant inhibitory activity

melting point: 231 °C (dec.)
SMILES: Cc1cc(I)ccc1Nc1ccccc1-c1nnn[nH]1 [Example 208, (4-iodo-2-methyl-phenyl)-[2-(1H-tetrazol-5-yl)-phenyl]amine]

melting point: 218 to 223 °C
SMILES: Cc1cc(I)ccc1Nc1ccccc1C(=O)O [Example 19, 2-(4-Iodo-2-methyl-phenylamino)-benzoic acid]

melting point: 208 to 211 °C
SMILES: COc1ccc(Nc2ccc(I)cc2)c(C(=O)O)c1 [Example 24, 2-(4-Iodo-phenylamino)-5-methoxy-benzoic acid]
